Laboratory results from patent publication US20250205259A1, “CLASS OF 7-((FIVE-MEMBERED HETEROCYCLIC)METHYL)-8-CARBOXYLIC ACID-BENZO CYCLIC BORATE DERIVATIVES AND USES THEREOF” (priority 2022, published 2025).
Where two headings read alike, the source gives them in different places.

Assays:
[1] = molecular target: KPC-2 (Klebsiella pneumoniae, UniProt Q9F663); assay: Inhibitory activity on SBL, fluorescent substrate FC-5; type: biochemical; conditions: for IC50: read-out: Inhibitory activity on SBL KPC-2 (IC50 class)
Sequence of KPC-2 (Q9F663 25-293 limits assumed): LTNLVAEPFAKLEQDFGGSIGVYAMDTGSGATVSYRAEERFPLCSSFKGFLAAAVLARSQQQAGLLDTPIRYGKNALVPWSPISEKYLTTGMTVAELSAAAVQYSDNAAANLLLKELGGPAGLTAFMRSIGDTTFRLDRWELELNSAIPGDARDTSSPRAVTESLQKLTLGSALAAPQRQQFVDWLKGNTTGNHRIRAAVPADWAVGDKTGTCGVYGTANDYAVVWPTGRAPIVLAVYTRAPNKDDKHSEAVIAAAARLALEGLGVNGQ

[2] = molecular target: VIM-2 (Escherichia coli, UniProt Q5U7L7); assay: Inhibitory activity on MBL, fluorescent substrate FC-5; type: biochemical; conditions: read-out: Inhibitory activity on MBL VIM-2 (IC50 class)
[3] = molecular target: OXA-48 (Klebsiella pneumoniae, UniProt Q6XEC0); assay: Inhibitory activity on SBL, fluorescent substrate FC-5; type: biochemical; conditions: for IC50: read-out: Inhibitory activity on SBL OXA-48 (IC50 class)
Sequence of OXA-48 (Q6XEC0 23-265 limits assumed): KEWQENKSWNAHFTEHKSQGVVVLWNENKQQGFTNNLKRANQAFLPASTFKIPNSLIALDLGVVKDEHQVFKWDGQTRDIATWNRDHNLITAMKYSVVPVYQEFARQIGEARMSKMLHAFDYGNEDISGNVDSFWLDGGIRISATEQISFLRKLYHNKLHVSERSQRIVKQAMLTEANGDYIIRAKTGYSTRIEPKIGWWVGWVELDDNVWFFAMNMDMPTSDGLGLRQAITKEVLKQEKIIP

[4] = molecular target: TEM-1 (Escherichia coli, UniProt P62593); assay: as above; type: biochemical; conditions: for IC50: read-out: Inhibitory activity on SBL TEM-1 (IC50 class)
Sequence of TEM-1 (P62593 24-286 limits assumed): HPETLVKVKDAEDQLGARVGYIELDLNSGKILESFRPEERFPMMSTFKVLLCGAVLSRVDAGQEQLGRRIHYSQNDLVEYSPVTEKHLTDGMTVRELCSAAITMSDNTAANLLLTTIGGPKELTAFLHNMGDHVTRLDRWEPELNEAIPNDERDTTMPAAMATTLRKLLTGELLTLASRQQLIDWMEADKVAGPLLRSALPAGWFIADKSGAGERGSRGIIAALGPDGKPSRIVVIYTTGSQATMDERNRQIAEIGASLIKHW

[5] = molecular target: NDM-1 (Klebsiella pneumoniae, UniProt C7C422); assay: Inhibitory activity on MBL, fluorescent substrate FC-5; type: biochemical
Sequence of NDM-1 (C7C422 29-270 limits assumed): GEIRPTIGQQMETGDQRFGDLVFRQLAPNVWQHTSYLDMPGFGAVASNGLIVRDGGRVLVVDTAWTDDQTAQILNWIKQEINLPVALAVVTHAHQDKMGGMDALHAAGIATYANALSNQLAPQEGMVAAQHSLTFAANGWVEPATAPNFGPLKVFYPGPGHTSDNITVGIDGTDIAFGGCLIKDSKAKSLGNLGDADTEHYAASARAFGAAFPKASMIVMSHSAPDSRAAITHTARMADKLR

[6] = molecular target: CTX-M-14 (Escherichia coli, UniProt Q9L5C7); assay: Inhibitory activity on SBL, fluorescent substrate FC-5; type: biochemical; conditions: for IC50: read-out: Inhibitory activity on SBL CTX-M-14 (IC50 class)
Sequence of CTX-M-14 (Q9L5C7 entry or part of it): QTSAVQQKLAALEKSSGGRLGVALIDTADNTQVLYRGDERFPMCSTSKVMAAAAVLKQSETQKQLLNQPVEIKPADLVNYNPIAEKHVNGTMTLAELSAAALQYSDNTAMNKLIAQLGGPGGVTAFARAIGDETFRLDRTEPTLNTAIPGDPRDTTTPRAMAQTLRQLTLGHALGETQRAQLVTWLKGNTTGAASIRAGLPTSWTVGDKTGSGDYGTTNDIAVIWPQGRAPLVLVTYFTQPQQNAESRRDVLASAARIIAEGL

[7] = molecular target: AmpC (UniProt P24735); assay: as above; conditions: read-out: Inhibitory activity on SBL AmpC (IC50 class)
[8] = molecular target: NDM-5 (Klebsiella pneumoniae, UniProt C7C422, M154L/V88L); assay: Inhibitory activity on MBL, fluorescent substrate FC-5; type: biochemical
Sequence of NDM-5 (C7C422 29-270 V88L/M154L): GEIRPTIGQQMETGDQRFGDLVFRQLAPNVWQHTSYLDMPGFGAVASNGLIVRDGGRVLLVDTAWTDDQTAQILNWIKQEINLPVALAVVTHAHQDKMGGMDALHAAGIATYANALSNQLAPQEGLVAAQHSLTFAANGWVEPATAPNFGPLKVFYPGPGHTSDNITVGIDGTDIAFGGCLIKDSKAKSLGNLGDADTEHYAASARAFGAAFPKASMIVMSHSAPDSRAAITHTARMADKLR

[9] = molecular target: IMP-1 (Serratia marcescens, UniProt P52699); assay: as above; type: biochemical
Sequence of IMP-1 (P52699 19-246 limits assumed): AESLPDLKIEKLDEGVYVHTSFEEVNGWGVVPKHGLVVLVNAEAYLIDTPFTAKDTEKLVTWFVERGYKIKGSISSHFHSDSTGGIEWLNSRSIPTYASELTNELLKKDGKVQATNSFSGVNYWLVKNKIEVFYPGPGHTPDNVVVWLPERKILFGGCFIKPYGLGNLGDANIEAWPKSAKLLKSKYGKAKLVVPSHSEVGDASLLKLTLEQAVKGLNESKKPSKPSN

[10] = molecular target: VIM-1 (Pseudomonas aeruginosa, UniProt A0A0F7KYQ8); assay: as above; type: biochemical
[11] = molecular target: T1, SHV-12 (UniProt P0AD64, L31Q/G234S/E235K, species not given); assay: Inhibitory activity on SBL, fluorescent substrate FC-5; type: biochemical; conditions: for IC50: read-out: Inhibitory activity on SBL SHV-12 (IC50 class); for inhibitory activity on SHV-12 compared to control drugs: comparison in words
T1 sequence (P0AD64 1-286 L31Q/G234S/E235K): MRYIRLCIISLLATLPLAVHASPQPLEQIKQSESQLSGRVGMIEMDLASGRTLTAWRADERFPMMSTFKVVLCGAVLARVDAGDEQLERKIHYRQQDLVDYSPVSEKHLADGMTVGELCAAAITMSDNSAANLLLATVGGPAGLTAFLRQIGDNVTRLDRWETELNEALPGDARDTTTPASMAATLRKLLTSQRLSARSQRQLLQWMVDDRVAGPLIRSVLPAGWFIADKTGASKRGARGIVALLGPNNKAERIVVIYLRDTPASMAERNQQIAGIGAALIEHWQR

[12] = read-out: Inhibitory activity on MBL NDM-1 (IC50 class)
[13] = read-out: Inhibitory activity on MBL NDM-5 (IC50 class)
[14] = read-out: Inhibitory activity on MBL IMP-1 (IC50 class)
[15] = VIM-1 and/or VIM-2, read-out: inhibitory activity at a nanomolar-level on VIM-1 and/or VIM-2
[16] = read-out: Inhibitory activity on MBL VIM-1 (IC50 class)
[17] = read-out: inhibitory activity at a nanomolar-level on NDM-1
[18] = read-out: inhibitory activity at a nanomolar-level on NDM-5
[19] = IMP-1 and/or IMP-4, read-out: inhibitory activity at a nanomolar-level on IMP-1 and/or IMP-4

| Compound | IC50 [1] | IC50 [2] | IC50 [3] | IC50 [4] | IC50 [5, 12] | IC50 [6] | IC50 [7] | IC50 [8, 13] | IC50 [9, 14] | IC50 [10, 15] | IC50 [10, 16] | IC50 [5, 17] | IC50 [8, 18] | IC50 [9, 19] | IC50 [11] | inhibitory activity on KPC-2 compared to avibactam ([1]; comparison in words) | inhibitory activity on OXA-48 compared to avibactam ([3]; comparison in words) | inhibitory activity on SHV-12 compared to control drugs [11] | inhibitory activity on TEM-1 compared to avibactam ([4]; comparison in words) | inhibitory activity on CTX-M-14 compared to avibactam ([6]; comparison in words) |
| --- | --- | --- | --- | --- | --- | --- | --- | --- | --- | --- | --- | --- | --- | --- | --- | --- | --- | --- | --- | --- |
| NCCCc1cn(Cc2ccc3c(c2C(=O)O)OB(O)CC3)nn1 [Compound 9] | < 0.01 µM | 0.01 to 1 µM | < 0.01 µM | 0.01 to 1 µM | 1 to 100 µM | 0.01 to 1 µM | > 100 µM | 0.01 to 1 µM | 1 to 100 µM | < 1 µM | 1 to 100 µM |  |  |  |  |  |  |  |  |  |
| N=C(N)NCCc1cn(Cc2ccc3c(c2C(=O)O)OB(O)CC3)nn1 [Compound 10] | < 0.01 µM | 0.01 to 1 µM | < 0.01 µM | 0.01 to 1 µM | 0.01 to 1 µM | 0.01 to 1 µM | > 100 µM | 0.01 to 1 µM | 1 to 100 µM | < 1 µM | 1 to 100 µM | < 1 µM | < 1 µM |  |  |  |  |  |  |  |
| NC1CCC(c2cn(Cc3ccc4c(c3C(=O)O)OB(O)CC4)nn2)CC1 (stereo not drawn) [Compound 11] | < 0.01 µM | 0.01 to 1 µM | < 0.01 µM | 0.01 to 1 µM | 0.01 to 1 µM | 0.01 to 1 µM | > 100 µM | 0.01 to 1 µM | 1 to 100 µM | < 1 µM | 1 to 100 µM | < 1 µM | < 1 µM |  |  |  |  |  |  |  |
| O=C(O)c1c(Cn2cc(-c3ccccc3)nn2)ccc2c1OB(O)CC2 [Compound 12] | < 0.01 µM | 0.01 to 1 µM | < 0.01 µM | 0.01 to 1 µM | 0.01 to 1 µM | 0.01 to 1 µM | > 100 µM | 0.01 to 1 µM | 1 to 100 µM | < 1 µM | 1 to 100 µM | < 1 µM | < 1 µM |  |  |  |  |  |  |  |
| O=C(O)c1c(Cn2ncc3ccccc32)ccc2c1OB(O)CC2 [Compound 22] | < 0.01 µM | 0.01 to 1 µM | < 0.01 µM | 0.01 to 1 µM | 0.01 to 1 µM | 0.01 to 1 µM | 1 to 100 µM | 0.01 to 1 µM | 0.01 to 1 µM | < 1 µM | 0.01 to 1 µM | < 1 µM | < 1 µM | < 1 µM |  |  |  |  |  |  |
| NCc1ccn(Cc2ccc3c(c2C(=O)O)OB(O)CC3)n1 [Compound 42] | < 0.01 µM | 0.01 to 1 µM | 0.01 to 1 µM | < 0.01 µM | 0.01 to 1 µM | 0.01 to 1 µM |  | 0.01 to 1 µM | 1 to 100 µM | < 1 µM | 0.01 to 1 µM | < 1 µM | < 1 µM |  | 0.01 to 1 µM |  |  |  |  |  |
| O=C(O)c1c(CN2C[C@H](O)CC2=O)ccc2c1OB(O)CC2 [Compound 44] | 0.01 to 1 µM | 0.01 to 1 µM | 0.01 to 1 µM | 0.01 to 1 µM | 0.01 to 1 µM | 0.01 to 1 µM |  | 0.01 to 1 µM | 1 to 100 µM | < 1 µM | 0.01 to 1 µM | < 1 µM | < 1 µM |  | 0.01 to 1 µM |  |  |  |  |  |
| N=C(N)NCCCc1cn(Cc2ccc3c(c2C(=O)O)OB(O)CC3)nn1 [Compound 48] | < 0.01 µM | 0.01 to 1 µM | 0.01 to 1 µM | 0.01 to 1 µM | 1 to 100 µM | 0.01 to 1 µM |  | 0.01 to 1 µM | 1 to 100 µM |  | 1 to 100 µM |  |  |  | 0.01 to 1 µM |  |  |  |  |  |
| N=C(N)N1CC(c2cn(Cc3ccc4c(c3C(=O)O)OB(O)CC4)nn2)C1 [Compound 49] | < 0.01 µM | 0.01 to 1 µM | 0.01 to 1 µM | 0.01 to 1 µM | 0.01 to 1 µM | 0.01 to 1 µM | 1 to 100 µM | 0.01 to 1 µM | 0.01 to 1 µM |  | 1 to 100 µM | < 1 µM | < 1 µM | < 1 µM |  |  |  |  |  |  |
| N=C(N)NCCc1cnn(Cc2ccc3c(c2C(=O)O)OB(O)CC3)c1 [Compound 50] | < 0.01 µM | 1 to 100 µM | 0.01 to 1 µM | 0.01 to 1 µM | 1 to 100 µM | 0.01 to 1 µM |  | 0.01 to 1 µM | 1 to 100 µM |  | 1 to 100 µM |  |  |  | 0.01 to 1 µM |  |  |  |  |  |
| NS(=O)(=O)NCCc1cn(Cc2ccc3c(c2C(=O)O)OB(O)CC3)nn1 [Compound 51] | < 0.01 µM | 0.01 to 1 µM | < 0.01 µM | 0.01 to 1 µM | 0.01 to 1 µM | 0.01 to 1 µM |  | 0.01 to 1 µM | 1 to 100 µM |  | 1 to 100 µM | < 1 µM | < 1 µM |  | 0.01 to 1 µM |  |  |  |  |  |
| O=C(O)c1c(Cn2cc3c(n2)CNC3)ccc2c1OB(O)[C@@H]1C[C@H]21 [Compound 53] | < 0.01 µM | 0.01 to 1 µM | < 0.01 µM | 0.01 to 1 µM | 0.01 to 1 µM | 0.01 to 1 µM |  | 0.01 to 1 µM | 1 to 100 µM |  | 1 to 100 µM | < 1 µM | < 1 µM |  | 0.01 to 1 µM |  |  |  |  |  |
| O=C(O)c1c(Cn2cc3c(n2)CNC3)ccc2c1OB(O)[C@H]1C[C@@H]21 [Compound 54] | 0.01 to 1 µM | 0.01 to 1 µM | 0.01 to 1 µM | 1 to 100 µM | 0.01 to 1 µM | 0.01 to 1 µM |  | 0.01 to 1 µM | 1 to 100 µM |  | 1 to 100 µM | < 1 µM | < 1 µM |  | 0.01 to 1 µM |  |  |  |  |  |
| O=C(O)c1c(Cn2ccc3cncnc32)ccc2c1OB(O)CC2 [Compound 55] | < 0.01 µM | 0.01 to 1 µM | 0.01 to 1 µM | < 0.01 µM | 0.01 to 1 µM | < 0.01 µM | 1 to 100 µM | 0.01 to 1 µM | 0.01 to 1 µM |  | 1 to 100 µM | < 1 µM | < 1 µM | < 1 µM |  |  |  |  |  |  |
| NS(=O)(=O)N1Cc2cn(Cc3ccc4c(c3C(=O)O)OB(O)CC4)nc2C1 [Compound 57] | < 0.01 µM | 0.01 to 1 µM | < 0.01 µM | < 0.01 µM | 0.01 to 1 µM | < 0.01 µM |  | 0.01 to 1 µM | 1 to 100 µM | < 1 µM | 0.01 to 1 µM | < 1 µM | < 1 µM |  | 0.01 to 1 µM |  |  |  |  |  |
| NCCc1ccc(-c2cn(Cc3ccc4c(c3C(=O)O)OB(O)CC4)nn2)cc1 [Compound 65] | < 0.01 µM |  |  |  |  |  | 1 to 100 µM |  |  |  |  |  |  |  |  |  |  |  |  |  |
| NCCN1Cc2cn(Cc3ccc4c(c3C(=O)O)OB(O)CC4)nc2C1 [Compound 70] | < 0.01 µM | 0.01 to 1 µM | 0.01 to 1 µM | < 0.01 µM | 0.01 to 1 µM | 0.01 to 1 µM |  | 0.01 to 1 µM | 0.01 to 1 µM | < 1 µM | 0.01 to 1 µM | < 1 µM | < 1 µM | < 1 µM | < 0.01 µM | better or comparable | better or comparable | comparable to avibactam and tazobactam and superior to taniborbactam | better or comparable | better or comparable |
| N#Cc1ccn(Cc2ccc3c(c2C(=O)O)OB(O)CC3)c1 [Compound 71] | < 0.01 µM | 0.01 to 1 µM | 0.01 to 1 µM | < 0.01 µM | 0.01 to 1 µM | 0.01 to 1 µM |  | 0.01 to 1 µM | 0.01 to 1 µM | < 1 µM | 0.01 to 1 µM | < 1 µM | < 1 µM |  | < 0.01 µM |  |  | comparable to avibactam and tazobactam and superior to taniborbactam |  |  |
| NC1CN(C(=O)c2cnn(Cc3ccc4c(c3C(=O)O)OB(O)CC4)c2)C1 [Compound 72] | < 0.01 µM | 0.01 to 1 µM | 0.01 to 1 µM | < 0.01 µM | 0.01 to 1 µM | 0.01 to 1 µM |  | 0.01 to 1 µM | 0.01 to 1 µM | < 1 µM | 0.01 to 1 µM | < 1 µM | < 1 µM |  | < 0.01 µM |  |  | comparable to avibactam and tazobactam and superior to taniborbactam |  |  |
